This note sets out measurements from patent US20040072694A1, “Method to inhibit ethylene responses in plants” (priority 2002, published 2004).

SMILES strings stand for the structures.

The test system of assay [1] is ethylene receptors. Description: Banana ripening protection from ethylene. It is filed as in vivo. The conditions noted are these: 24 hours of exposure in 3-liter jar, then 333 microliters per liter of ethylene for 12-15 hours; banana peels. How it is done:
Compounds which block the ethylene receptors can prevent bananas from ripening. Treatment of bananas with 30 nl/l of Compound 1 protected banana peels from the effects of ethylene. The bananas were treated using the following general procedure:
An ether solution of a known amount of the active compound was placed on filter paper in a 3-liter jar. The amount of ether used was without effect when applied alone on a banana contained in a 3-liter jar. The jar was sealed and the banana was removed after 24 hours of exposure. The banana was then treated with 333 microliters per liter of ethylene in a 3-liter jar for 12-15 hours. It was then observed for ripening. The minimum concentration that protected the banana was determined.

Assay [2] relates to Patio variety tomato seedlings. Kind of assay: Tomato Epinasty Test, volatile gas treatment. It counts as in vivo. To be noted: applied as a gas at 1000 ppm; ethylene 10 ppm v/v after four hours, scored sixteen hours later. Here is the method:
Objective: The test procedure is designed to determine the ability of an experimental compound to block the epinastic growth response induced by ethylene in tomato plants when the experimental compound is administered either as a volatile gas or as a component of a spray solution. Treatment chambers are of an appropriate size for the test plants and are airtight. Each is fitted with a reusable septum to be used for injection of ethylene. Test plants are Patio variety tomato seedlings planted two plants per three inch square plastic pot. Volatile gas treatment entails placing two pots of Patio var. tomatoes into a polystyrene 4.8L volume treatment chamber along with one-half (upper or lower section) of a 50×9 mm plastic Petri dish containing a Gelman filter pad. The appropriate amount of experimental compound, dissolved in 1.0 ml acetone, is pipetted onto the filter pad and the chamber immediately sealed. Four hours later ethylene gas equal to 10 ppm v/v final concentration is injected into the sealed chamber. Sixteen hours later the chambers are opened in an exhaust hood, allowed to air and the plants scored visually for the degree of protection against ethylene-induced epinasty conferred by the experimental compound when compared to ethylene treated and untreated controls on a scale of 0 to 10. A rating of 10 means complete protection. […]

On to `OCC1=CC1` [Compound 1, 1-Hydroxymethylcyclopropene], for which the “minimum concentration that protected the banana” value in assay [1] turned out to be 30 nl/l.

Consider `OCCC1=CC1` [Compound 2, 1-(2-Hydroxyethyl)-cyclopropene], for which, in assay [2], the “rating of protection against ethylene-induced epinasty (scale of 0 to 10; 10 means complete protection)” value stood at 10.
